{"source": "paper PMC7275090", "about": "“Mode of action of teixobactins in cellular membranes” (Nature Communications, 2020)", "molecules": {"B1": {"name": "[R4L10]-teixobactin (peptide)", "peptide": "[dNMeF]IS[dR][d(aIle)]IS[dT]ALI", "modifications": "ester 8-C; also: 13C,15N-labelled at Ile2, Ser3, Ile6, Ser7, Ala9, Leu10", "notes": "Analogue of teixobactin, a natural undecapeptide from Eleftheria terrae; Cyclic depsipeptide with non-proteinogenic and D-residues; also called D-Arg4-Leu10-teixobactin; source: synthetic peptide (solid-phase synthesis, cyclised, purified by RP-HPLC)"}}, "key": {"[1]": {"settings": "vancomycin, unlike teixobactins; cited from earlier work", "text": "In summary, a picture of a balanced binding mode emerges in which teixobactins use the conserved pyrophosphate as firm, specific anchor, whereas the interaction with the sugar-pentapeptide headgroup is more loosely defined[28],[29]. This behaviour enables teixobactins to recognize different cognate cell-wall building blocks and wall teichoic acids precursors, such as Lipid I, Lipid II, Lipid III, and undecaprenyl pyrophosphate that all have the PPi moiety in common but feature different headgroups. The capacity to recognize several conserved precursor molecules both maximizes the number of ..."}, "[2]": {"assay": "ssNMR signal intensity of Lipid II-bound teixobactin, DOPC vs DOPG liposomes", "text": "(§1) SSNMR samples: MLVs were collected by centrifugation (20,000×g) and loaded into ssNMR rotors. For 3.2 mm rotors, we used 800 nmol of antibiotic with unlabelled Lipid II or I, while we used 400 nmol with labelled Lipid II. For 1.3 mm rotors, samples contained 200 nmol of antibiotic for unlabelled Lipid II or I, while we used 100 nmol for labelled Lipid II. For all ssNMR samples, we used 4 mol%/mol Lipid II or I in the MLVs.\nH/ppm H/ppm N spinlock duration (ms)\nWeaker binding affinity to Lipid II in anionic conditions is a common property of the binding mode of teixobactins.\nTo validate and generalise our findings, we repeated ssNMR studies with a second analogue, [L10]-teixobactin, which is close to natural teixobactin. Both [L10]- teixobactin and [R4L10]-teixobactin show similar behaviour in anionic membranes, i.e., sharp drops in ssNMR sensitivity and marked increase in mobility in the complex. We note that only the difference between natural teixobactin and [Leu10]- teixobactin is the substitution of enduracididine10 by leucine10. We also note that the substitution by enduracididine10 by cationic or hydrophobic residues is tolerated […]\na) 1H-detected 1D NH spectra of Lipid II-bound [Leu10]-teixobactin measured in DOPC (cyan) and DOPG (red) liposomes. The signal-to-noise ratio is more than six times lower in anionic membranes. Both spectra were acquired with fully packed 1.3 mm rotors and 10240 scans each. b)15N T1rho signal decay curves of the bulk signal of Lipid II-bound [Leu10]- teixobactin in DOPC (cyan) and (DOPG (red) membranes. Relaxation is much faster […]\nc) Corresponding 15N R1rho rates of Lipid II-bound [Leu10]-teixobactin in DOPC (cyan) and DOPG (red) membranes. The error bars show the standard error of the fit. Source data are provided as a Source Data file.\nThe spectra were acquired at 700 MHz with 60 kHz magic angle spinning (MAS)."}, "[3]": {"assay": "Fluorescence microscopy of GUVs doped with NBD-labelled Lipid II (Lipid II clustering)", "settings": "DOPC GUVs, 1 μM peptide, 4 h", "quoted_text": "GUVs were prepared using the electroformation method. The GUV cell is a self-assembled system which consists of a 5 mm-thick Teflon plate which is aligned with two titanium electrodes in a closed Teflon chamber. 1.5 μL of 0.5 mM DOPC doped with NBD-labelled Lipid II (0.1 mol%) were brushed on the electrodes. Next, the chamber was filled with 350 μL 0.1 M sucrose solution; the electrodes dipped in and then connected to a power supply which generated a sine wave of voltage 2.5 V at a frequency of 10 Hz for 90 min. Each microscopy slide (μ-slide 8 well, Ibidi) was covered with 350 μL BSA solution (1 mg/mL). To detach the GUVs from the electrodes the power supply was changed to square wave of voltage 2 V at a frequency of 2 Hz for 15 min. The slides were immersed in 300 μL 0.1 mM glucose solution to which 80 μL of GUVs were added. These were incubated for 4 h with 1 μM [R4L10]-teixobactin and observed by confocal microscopy. Anionic GUVs were prepared using a homemade electroformation setup with ITO coverslips (18 × 18 mm, 15–30 Ω, SPI supplies). On both slips, 3 μL of a chloroform–methanol (1:1, vol/vol) solution containing 1 mM of a 3:1 mixture of DOPC:DOPG (mol/mol) and 0.1 mol% NBD-labelled Lipid II was deposited and dried in a vacuum desiccator. With these slips, the electroformation chamber was assembled and filled with 0.1 M sucrose solution. The GUV cell was connected to the power supply and an alternating current applied (1 V, 10 Hz). GUV formation was carried out overnight.\nMicroscopy: GUVs were imaged using Zeiss LSM 880 with ×63/1.2NA glycerol objective lens. The NBD label appeared green upon excitation by the 488 nm laser. The emission range for detection was 530–545 nm (λem peak = 539 nm). The brightfield images were used for detection and location of the GUVs without a fluorescent signal and also as a control to observe their shape."}, "[4]": {"assay": "ssNMR 15N T1rho relaxation (dynamics of bound teixobactin), Lys-Lipid II", "settings": "[L10] analogue, 60 kHz MAS", "method": "Relaxation studies: ^1H-detected ^15N T1rho relaxation experiments were carried out at 950 and 700 MHz magnetic field, respectively, using 60 kHz MAS[51]. The ^15N transverse magnetization decay was probed with a ^15N spinlock field of 17.5 kHz. For the bulk, we measured the intensity of the most intense signal at ~8.80 ^1H ppm. T1rho trajectories were fit to single exponentials.\nLipid I or II-doped multi-laminar vesicle preparations: DOPC or DOPG lipids were mixed with Lipid I or II in 1:1 MeOH:CHCl3 at the final Lipid I or II molar ratio (0–4 mol%/mol). The mixtures were dried and the lipid films were hydrated by vortexing with 2 mL of a teixobactin solution in 40 mM phosphate, 25 mM NaCl, pH 7.0.\nas §1"}, "[5]": {"target": "the molecule itself", "assay": "solid-state NMR; 2D 13C13C PARISxy spectra with long magnetization transfer times (50-1000 ms), distance threshold ~8 Å; 13C,15N-labelled [R4L10]-teixobactin bound to unlabelled Lipid II (4 mol%) in DOPC membranes; 950 MHz, 15.5 kHz MAS, 270 K"}}, "note": "Bridge positions count the residues as written; N and C are the ends. Square brackets hold non-standard residues; d marks the D form. Ends that are not written are not given here. d(aIle) = CC[C@H](C)[C@@H](N)C(=O)O; dNMeF = CN[C@H](Cc1ccccc1)C(=O)O", "data": [{"molecule": "vancomycin", "values": [{"measurement": "ability to bind Lipid II versions with different pentapeptides", "setting": "[1]", "result": "unlike vancomycin"}]}, {"molecule": "Leu10-teixobactin [[L10]-teixobactin]", "values": [{"measurement": "signal-to-noise ratio, times lower in anionic membranes", "setting": "[2]; DOPG vs DOPC, 1H-detected 1D NH spectra, 10240 scans each", "result": "more than six"}, {"measurement": "relative 1D NH signal, DOPC", "setting": "[2]; Supplementary Figure 11a, DOPC (reference)", "result": 100, "unit": "%"}, {"measurement": "relative 1D NH signal, DOPG", "setting": "[2]; Supplementary Figure 11a, DOPG relative to DOPC", "result": 15, "unit": "%"}, {"measurement": "Lipid II segregation into clusters on GUVs", "setting": "[3]; 0.1 mol% NBD-Lipid II", "result": "segregation of Lipid II into clusters"}, {"measurement": "vesicle integrity and morphology after incubation", "setting": "[3]; brightfield images, cluster sites show slight membrane deformations", "result": "morphology is maintained"}, {"measurement": "Bulk 15N R1rho", "setting": "[4]; Lys-LII in DOPC (Lys-LII PC)", "result": 5.29, "unit": "s⁻¹"}, {"measurement": "Bulk 15N T1rho", "setting": "[4]; Lys-LII in DOPC (Lys-LII PC)", "result": 189.00, "unit": "ms"}, {"measurement": "Bulk 15N R1rho", "setting": "[4]; Lys-LII in DOPG (Lys-LII PG)", "result": 18.49, "unit": "s⁻¹"}, {"measurement": "Bulk 15N T1rho", "setting": "[4]; Lys-LII in DOPG (Lys-LII PG)", "result": 54.07, "unit": "ms"}]}, {"molecule": "B1", "values": [{"measurement": "binding result", "setting": "[5]", "result": "binds"}]}]}
